According to patent US20230365592A1 (Agios Pharmaceuticals, Inc., priority 2022, published 2023):

target: T1, human PAH with the R408W mutation (Homo sapiens, UniProt P00439, R408W); assay: Cell Based Phenylalanine Flux Assay; details: A375 cells expressing R408W PAH; 24 hrs with compound, then 20 µM sepiapterin and 800 µM 13C9,15N-Phenylalanine for 4 hours; 13C-Tyrosine by LC-MS; average where tested multiple times; read-out: AC50;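 further: after compound treatment, cells received sepiapterin plus isotope-labelled Phenylalanine for 4 hours, then labelled Tyrosine in the medium was quantified, 10-point 2-fold dilution series run in duplicate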
T1 construct: expressed in transfected cells
T1 sequence (P00439 1-452 R408W): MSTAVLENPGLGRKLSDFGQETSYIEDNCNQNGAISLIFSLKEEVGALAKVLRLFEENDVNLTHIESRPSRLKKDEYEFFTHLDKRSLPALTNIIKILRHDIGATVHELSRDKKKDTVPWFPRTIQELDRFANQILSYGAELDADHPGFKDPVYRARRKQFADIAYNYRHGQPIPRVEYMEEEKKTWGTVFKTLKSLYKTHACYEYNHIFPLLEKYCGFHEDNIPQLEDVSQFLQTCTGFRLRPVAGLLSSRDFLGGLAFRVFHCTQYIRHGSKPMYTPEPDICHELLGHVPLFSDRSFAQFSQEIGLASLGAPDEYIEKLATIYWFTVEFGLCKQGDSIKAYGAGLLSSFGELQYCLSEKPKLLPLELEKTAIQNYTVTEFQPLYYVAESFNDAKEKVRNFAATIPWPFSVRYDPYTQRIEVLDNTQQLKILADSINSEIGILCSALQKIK

AC50 [nM]	Structure (SMILES)
1000 to 5000	Fc1cccc2cc(C3c4nc[nH]c4CCN3c3nnc(C(F)(F)F)o3)nn12 (stereo not shown)
1000 to 5000	COCc1nnc(C(=O)N2CCc3[nH]cnc3C2c2cc3ccccn3n2)o1 (stereo not shown)

Further lines, the molecule ahead of its results:

Structure (SMILES)	AC50 [nM]
Cc1nc(C(=O)N2CCc3[nH]cnc3C2c2cc3c(F)cccn3n2)n(C)n1 (stereo not shown)	1000 to 5000
CC(C)(F)c1nnc(C(=O)N2CCc3[nH]cnc3C2c2cc3cc(F)ccn3n2)o1 (single isomer, unassigned)	1000 to 5000
Cc1nnc(CCC(=O)N2CCc3[nH]cnc3C2c2cc3ccccn3n2)s1 (stereo not shown)	> 5000
O=C(c1nc2ccccc2s1)N1CCc2[nH]cnc2C1c1cc2c(C(F)(F)F)cccn2n1 (stereo not shown)	1000 to 5000
Cn1ccc(-c2nnc(C(=O)N3CCc4[nH]cnc4C3c3cc4cc(C(F)(F)F)ccn4n3)o2)n1 (stereo not shown)	> 5000

same assay, conditions: A375 cells expressing human PAH R408W; 24 hrs compound incubation; 13C-Tyrosine by LC-MS; average where tested multiple times; read-out: AC50

AC50 [nM]	Structure (SMILES)
< 500	Fc1cccn2nc([C@@H]3c4nc[nH]c4CCN3c3ccc(C(F)(F)F)cn3)cc12 [Example 1943, (S)-4-(4-fluoropyrazolo[1,5-a]pyridin-2-yl)-5-(5-(trifluoromethyl)pyridin-2-yl)-4,5,6,7-tetrahydro-1H-imidazo[4,5-c]pyridine]
500 to 1000	Clc1cccn2nc([C@@H]3c4nc[nH]c4CCN3c3nnc(-c4cccnn4)o3)cc12 [Example 2198, (S)-2-(4-(4-chloropyrazolo[1,5-a]pyridin-2-yl)-1,4,6,7-tetrahydro-5H-imidazo[4,5-c]pyridin-5-yl)-5-(pyridazin-3-yl)-1,3,4-oxadiazole]
< 500	Fc1ccc(-c2nnc(N3CCc4[nH]cnc4[C@H]3c3cc4c(C(F)(F)F)cccn4n3)o2)cc1 [Example 1893, (S)-2-(4-fluorophenyl)-5-(4-(4-(trifluoromethyl)pyrazolo[1,5-a]pyridin-2-yl)-1,4,6,7-tetrahydro-5H-imidazo[4,5-c]pyridin-5-yl)-1,3,4-oxadiazole]
> 5000	Nc1cnc(N2CCc3[nH]cnc3[C@@H]2c2cc3c(Cl)cccn3n2)nc1 [Example 1872, (R)-2-(4-(4-chloropyrazolo[1,5-a]pyridin-2-yl)-1,4,6,7-tetrahydro-5H-imidazo[4,5-c]pyridin-5-yl)pyrimidin-5-amine]
1000 to 5000	Fc1cccn2nc([C@H]3c4nc[nH]c4CCN3c3ccccc3)cc12 [Example 2312, (R)-4-(4-fluoropyrazolo[1,5-a]pyridin-2-yl)-5-phenyl-4,5,6,7-tetrahydro-1H-imidazo[4,5-c]pyridine]
< 500	CC(C)c1cccn2nc([C@@H]3c4nc[nH]c4CCN3C(=O)c3nnc(C(C)(C)F)o3)cc12 [Example 1884, (S)-(5-(2-fluoropropan-2-yl)-1,3,4-oxadiazol-2-yl)(4-(4-isopropylpyrazolo[1,5-a]pyridin-2-yl)-1,4,6,7-tetrahydro-5H-imidazo[4,5-c]pyridin-5-yl)methanone]
1000 to 5000	COc1cccn2nc([C@H]3c4nc[nH]c4CCN3c3ncccn3)cc12 [Example 2298, (R)-4-(4-methoxypyrazolo[1,5-a]pyridin-2-yl)-5-(pyrimidin-2-yl)-4,5,6,7-tetrahydro-1H-imidazo[4,5-c]pyridine]
> 5000	COc1cccn2nc([C@H]3c4nc[nH]c4CCN3c3ccc(C(F)(F)F)cn3)cc12 [Example 2246, (R)-4-(4-methoxypyrazolo[1,5-a]pyridin-2-yl)-5-(5-(trifluoromethyl)pyridin-2-yl)-4,5,6,7-tetrahydro-1H-imidazo[4,5-c]pyridine]
500 to 1000	Cc1ncccc1-c1nnc(N2CCc3[nH]cnc3[C@H]2c2cc3cccc(C)n3n2)o1 [Example 2332, (S)-2-(4-(7-methylpyrazolo[1,5-a]pyridin-2-yl)-1,4,6,7-tetrahydro-5H-imidazo[4,5-c]pyridin-5-yl)-5-(2-methylpyridin-3-yl)-1,3,4-oxadiazole]

same assay, conditions: A375 cells expressing human R408W PAH; 24 hrs compound incubation; 13C-Tyrosine by LC-MS; average where tested multiple times; read-out: AC50

AC50 [nM]	Structure (SMILES)
500 to 1000	O=C(c1nnc(C2CC2)o1)N1CCc2[nH]cnc2[C@H]1c1cc2c(OC(F)F)cccn2n1 [Example 1654, (S)-(5-cyclopropyl-1,3,4-oxadiazol-2-yl)(4-(4-(difluoromethoxy)pyrazolo[1,5-a]pyridin-2-yl)-6,7-dihydro-1H-imidazo[4,5-c]pyridin-5(4H)-yl)methanone]
< 500	C[C@@H](O)c1nc(C(F)F)c(C(=O)N2CCc3[nH]cnc3[C@H]2c2cc3c(Cl)cccn3n2)o1 [Example 702, ((S)-4-(4-chloropyrazolo[1,5-a]pyridin-2-yl)-6,7-dihydro-1H-imidazo[4,5-c]pyridin-5(4H)-yl)(4-(difluoromethyl)-2-((R)-1-hydroxyethyl)oxazol-5-yl)methanone]
> 5000	CC(C)c1nnc(C(=O)N2CCc3[nH]cnc3[C@@H]2c2cc3c(C(F)(F)F)cccn3n2)o1 [Example 1487, (R)-(5-isopropyl-1,3,4-oxadiazol-2-yl)(4-(4-(trifluoromethyl)pyrazolo[1,5-a]pyridin-2-yl)-6,7-dihydro-1H-imidazo[4,5-c]pyridin-5(4H)-yl)methanone]
> 5000	Cn1nccc1-c1nnc(C(=O)N2CCc3[nH]cnc3[C@@H]2c2cc3cccc(C(F)F)n3n2)o1 [Example 1609, (R)-(4-(7-(difluoromethyl)pyrazolo[1,5-a]pyridin-2-yl)-6,7-dihydro-1H-imidazo[4,5-c]pyridin-5(4H)-yl)(5-(1-methyl-1H-pyrazol-5-yl)-1,3,4-oxadiazol-2-yl)methanone]
1000 to 5000	Cc1nc([C@@H](C)O)oc1C(=O)N1CCc2[nH]cnc2[C@@H]1c1cc2c(C)cccn2n1 [Example 753, (2-((R)-1-hydroxyethyl)-4-methyloxazol-5-yl)((R)-4-(4-methylpyrazolo[1,5-a]pyridin-2-yl)-6,7-dihydro-1H-imidazo[4,5-c]pyridin-5(4H)-yl)methanone]
1000 to 5000	CCOc1cccc2cc([C@H]3c4nc[nH]c4CCN3C(=O)c3oc(C(C)(C)O)nc3C(F)F)nn12 [Example 1244, (R)-(4-(difluoromethyl)-2-(2-hydroxypropan-2-yl)oxazol-5-yl)(4-(7-ethoxypyrazolo[1,5-a]pyridin-2-yl)-6,7-dihydro-1H-imidazo[4,5-c]pyridin-5(4H)-yl)methanone]
< 500	Cc1cccc2cc([C@@H]3c4nc[nH]c4CCN3C(=O)c3oc(C(C)(C)O)nc3C(F)(F)F)nn12 [Example 1150, (S)-(2-(2-hydroxypropan-2-yl)-4-(trifluoromethyl)oxazol-5-yl)(4-(7-methylpyrazolo[1,5-a]pyridin-2-yl)-6,7-dihydro-1H-imidazo[4,5-c]pyridin-5(4H)-yl)methanone]

Continued, molecule first:

Structure (SMILES)	AC50 [nM]
COc1cccn2nc([C@@H]3c4nc[nH]c4CCN3C(=O)c3cnco3)cc12 [Example 1166, (S)-(4-(4-methoxypyrazolo[1,5-a]pyridin-2-yl)-6,7-dihydro-1H-imidazo[4,5-c]pyridin-5(4H)-yl)(oxazol-5-yl)methanone]	500 to 1000
Cn1nc(Cl)nc1C(=O)N1CCc2[nH]cnc2[C@H]1c1cc2c(F)cccn2n1 [Example 762, (S)-(3-chloro-1-methyl-1H-1,2,4-triazol-5-yl)(4-(4-fluoropyrazolo[1,5-a]pyridin-2-yl)-6,7-dihydro-1H-imidazo[4,5-c]pyridin-5(4H)-yl)methanone]	< 500
Cc1cccn2nc([C@H]3c4nc[nH]c4CCN3c3nnc(C(C)(C)C)o3)cc12 [Example 1798, (R)-2-(tert-butyl)-5-(4-(4-methylpyrazolo[1,5-a]pyridin-2-yl)-6,7-dihydro-1H-imidazo[4,5-c]pyridin-5(4H)-yl)-1,3,4-oxadiazole]	> 5000
COc1cccn2nc([C@@H]3c4nc[nH]c4CCN3C(=O)c3nnc(-c4ccn(C(F)(F)F)n4)o3)cc12 [Example 1652, (S)-(4-(4-methoxypyrazolo[1,5-a]pyridin-2-yl)-6,7-dihydro-1H-imidazo[4,5-c]pyridin-5(4H)-yl)(5-(1-(trifluoromethyl)-1H-pyrazol-3-yl)-1,3,4-oxadiazol-2-yl)methanone]	500 to 1000
Clc1cccn2nc([C@@H]3c4nc[nH]c4CCN3c3nnc(C4CC4)o3)cc12 [Example 1455, (S)-2-(4-(4-chloropyrazolo[1,5-a]pyridin-2-yl)-1,4,6,7-tetrahydro-5H-imidazo[4,5-c]pyridin-5-yl)-5-cyclopropyl-1,3,4-oxadiazole]	< 500
Clc1cccn2nc([C@@H]3c4nc[nH]c4CCN3c3nnc(-c4ccccn4)o3)cc12 [Example 1623, (S)-2-(4-(4-chloropyrazolo[1,5-a]pyridin-2-yl)-6,7-dihydro-1H-imidazo[4,5-c]pyridin-5(4H)-yl)-5-(pyridin-2-yl)-1,3,4-oxadiazole]	< 500
FC(F)c1cccn2nc([C@@H]3c4nc[nH]c4CCN3c3nnc(C4CC4)o3)cc12 [Example 1607, (S)-2-cyclopropyl-5-(4-(4-(difluoromethyl)pyrazolo[1,5-a]pyridin-2-yl)-6,7-dihydro-1H-imidazo[4,5-c]pyridin-5(4H)-yl)-1,3,4-oxadiazole]	500 to 1000
Cc1cccn2nc([C@@H]3c4nc[nH]c4CCN3c3nnc(C(F)F)o3)cc12 [Example 1711, (S)-2-(difluoromethyl)-5-(4-(4-methylpyrazolo[1,5-a]pyridin-2-yl)-6,7-dihydro-1H-imidazo[4,5-c]pyridin-5(4H)-yl)-1,3,4-oxadiazole]	500 to 1000
